Reference: patent US9567371B2, “Short beta-defensin-derived peptides” (Yeda Research and Development Co. Ltd., priority 2009, dated 2017)
Peptide text beside a SMILES is read from it.

Experiments:
pre-B-ALL G2 cells = assay: Cell toxicity assay (propidium iodide exclusion, flow cytometry); format: cell-based, human; details: 6 and 24 h, FIG. 1
Method: FIG. 1. […] G2 cells (1×10^6/ml) were cultured in 96-well flat-bottom wells in serum free IMDEM culture medium supplemented with L-glutamine and antibiotics, for 6 and 24 h at 37° C. with the indicated peptides. Untreated cells served as a control. After treatment, cells were stained with propidium iodide (PI) and its exclusion was analyzed by flow cytometry. Data shown are the percentage of Pr (dead) cells. Vertical bars represent standard deviation of duplicate experiments. *P<0.05 compared to untreated control.
Pre-B-ALL G2 cells and freshly isolated primary human CD3^+ T cells (1×10^6/ml) were cultured in 96-well flat-bottom wells in serum free IMDM or RPMI 1640 medium, respectively, both supplemented with L-glutamine and antibiotics, for 6 and 24 hrs at 37° C. (95% humidity, 5% CO2) with 10 μM, 100 μM or 1 mM of the peptides. Untreated cells served as a control. Cell viability was determined by propidium iodide (PI) exclusion by flow cytometry as described (Goichberg, P., et al., 2006).
In order to test cytotoxicity of the peptides, human pre-B-ALL G2 cells and freshly isolated primary human CD3^+ T cells (1×10^6/ml) were cultured in with 10 μM, 100 μM or 1 mM of TL-1, AK-1 and cyclic TL-1, as described in the Material and Methods. All tested peptides were not toxic for G2 cells (FIG. 1) as well as for primary human T cells at 10 μM and 100 μM. Even in the highest concentration, 1 mM, the peptides killed only 8-12% and 14-16% cells treated for 6 and 24 hrs, respectively, indicating a very low cytotoxicity of the peptides.

MG-63 cells = assay: SDF-1, bFGF and HGF secretion by stromal cells (ELISA of supernatants); format: cell-based, human; details: 10 μM, compared with untreated cells
Method: (§1) FIGS. 7A-7F. Effect of TL-1, AK-1 and cyclic TL-1 on SDF-1, bFGF and HGF secretion by different stromal cell lines. MS-5, MBA-15 and MG-63 cells were co-cultured with 10 μM TL-1, AK-1 or cyclic TL-1 in the serum free medium for 6 hrs, or without added peptide (UT). Levels of SDF-1 (A-C), bFGF (D) and HGF (E, F) were detected in the collected supernatants by ELISA. Data shown are the mean±SD of 2 separate experiments. *P<0.05 compared to control.
SDF-1 levels in tested samples were determined by ELISA as described (Kalinkovich, A., et al., 2006) where the K15C monoclonal antibodies (mAb, INRA, Paris, France) recognizing the first three amino acids of SDF-1 were utilized as a capture Ab (10 μg/mL) in order to measure levels of intact, non-cleaved SDF-1. Levels of basic FGF (bFGF) and HGF in tested samples were determined by using corresponding capture mAbs and polyclonal biotynilated Abs (R&D Systems) as recommended by the manufacturer. In order to examine SDF-1, bFGF and HGF levels in cell supernatants, MS-5, MBA-15 and MG-63 cells were seeded in 24-well Costar wells and cultivated in RPMI 1640 or αMEM Eagle medium, respectively, with 10% FCS. […]
(§2) In order to examine the capability of the peptides to induce secretion of other proteins, the levels of Hepatocyte growth factor (HGF) and Basic fibroblast growth factor (bFGF) were detected in the same supernatants.

MS-5 cells = assay: as above; format: cell-based, mouse; details: 10 μM, compared with untreated cells
Method: as §1
(§3) SDF-1 levels in tested samples were determined by ELISA as described (Kalinkovich, A., et al., 2006) where the K15C monoclonal antibodies (mAb, INRA, Paris, France) recognizing the first three amino acids of SDF-1 were utilized as a capture Ab (10 μg/mL) in order to measure levels of intact, non-cleaved SDF-1. Levels of basic FGF (bFGF) and HGF in tested samples were determined by using corresponding capture mAbs and polyclonal biotynilated Abs (R&D Systems) as recommended by the manufacturer. In order to examine SDF-1, bFGF and HGF levels in cell supernatants, MS-5, MBA-15 and MG-63 cells were seeded in 24-well Costar wells and cultivated in RPMI 1640 or αMEM Eagle medium, respectively, with 10% FCS. When the cells reached confluence, the medium was changed to serum free medium and cells were cultivated for additional 6 hrs in the presence of various concentrations of the peptides. Medium samples were collected and centrifuged 10 min at 6000×g at 4° C. to remove cell debris. Supernatants were collected and kept at −70° C. until tested.
(§4) Because BM stromal cells, such as endosteal bone lining osteoblasts and endothelial cells are the main source of human and murine SDF-1, the capability of the peptides to affect SDF-1 secretion by mouse stromal MS-5 and MBA-15 cells, and human osteoblast MG-63 cells was examined.
as §2

MBA-15 cells = assay: as above; format: cell-based, mouse; details: 10 μM, compared with untreated cells
Method: as §1, §3, §4, §2

SDF-1 = SDF-1 plasma levels in injected mice (ELISA); format: in vivo, mouse; details: 5 mg/kg s.c., compared with mice injected with PBS
Method: as §3

In the case of N=C(N)NCCC[C@H](NC(=O)CNC(=O)[C@@H](N)CO)C(=O)N[C@@H](CCCCN)C(=O)N[C@@H](CS)C(=O)N[C@@H](CS)C(=O)N[C@@H](CCCNC(=N)N)C(=O)N[C@@H](CCCCN)C(=O)N[C@@H](CCCCN)C(=O)N[C@@H](CCCCN)C(=O)O [AK-1, SGRKCCRKKK] (H-SGRKCCRKKK-OH), the “cellular toxicity (percentage of PI+ dead cells)” value (pre-B-ALL G2 cells) is reported as “Low cellular toxicity”.
In the case of c1cc(CN2CCCNCCNCCCNCC2)ccc1CN1CCCNCCNCCCNCC1 [AMD3100, reference compound], the “levels of SDF-1 in supernatants” value (MG-63 cells) is reported as “did not affect”, the “levels of SDF-1 in supernatants” value (MS-5 cells) is reported as “did not affect” and the “levels of SDF-1 in supernatants” value (MBA-15 cells) is reported as “did not affect”. The SDF-1 plasma levels (SDF-1) was “significant elevation”.
With N=C(N)NCCC[C@H](NC(=O)CNC(=O)[C@@H](N)CCCNC(=N)N)C(=O)N[C@@H](CCCCN)C(=O)N[C@@H](CS)C(=O)N[C@@H](CS)C(=O)N[C@@H](CCCNC(=N)N)C(=O)N[C@@H](CCCNC(=N)N)C(=O)N[C@@H](CCCCN)C(=O)N[C@@H](CCCCN)C(=O)O [TL-1, RGRKCCRRKK] (H-RGRKCCRRKK-OH) the “cellular toxicity (percentage of PI+ dead cells)” value (pre-B-ALL G2 cells) was “Low cellular toxicity”.
